Source: ChEMBL document CHEMBL1201862, “PubChem BioAssay data set” (2004)
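Dose response: 5 concentrations. Exposure: 48 h. Format: 96-well plates. Endpoint: linear interpolation; highest concentration if not reached. Abbreviation: GI50, concentration required for 50% inhibition of growth.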 Activity calls are given as the source filed them. No stated cut-off is given here; in the data, active = GI50 up to about 1.1 µM and inactive = higher.

Legend:
Assay in all cases: NCI-60 cell line screen, 48 h
COLO 205 = system: COLO 205
MCF7 = system: MCF7
OVCAR-4 = system: OVCAR-4
Malme-3M = system: Malme-3M
OVCAR-3 = system: OVCAR-3
A549 = system: A549
U-251 = system: U-251
MDA-MB-231 = system: MDA-MB-231
SW-620 = system: SW-620
SF-539 = system: SF-539
SK-MEL-2 = system: SK-MEL-2
KM12 = system: KM12
MDA-MB-435 = system: MDA-MB-435
PC-3 = system: PC-3
DU-145 = system: DU-145
HCT-116 = system: HCT-116
HT-29 = system: HT-29
UACC-62 = system: UACC-62
CAKI-1 = system: CAKI-1

Measured: GI50

O=C1NCCCc2nonc21
inactive: COLO 205 > 100 µM | MCF7 > 100 µM | OVCAR-4 > 100 µM | Malme-3M > 100 µM | OVCAR-3 > 100 µM | A549 > 100 µM | U-251 > 100 µM | MDA-MB-231 > 100 µM | SW-620 > 100 µM | SF-539 > 100 µM | SK-MEL-2 > 100 µM | KM12 > 100 µM | MDA-MB-435 > 100 µM | PC-3 > 100 µM | DU-145 > 100 µM | HCT-116 > 100 µM | HT-29 > 100 µM | UACC-62 > 100 µM | CAKI-1 > 100 µM

c1nnc(NCNc2nncs2)s1
inactive: COLO 205 56.1 µM | MCF7 38.5 µM | OVCAR-4 11.7 µM | Malme-3M > 100 µM | OVCAR-3 21.5 µM | A549 23.6 µM | U-251 50 µM | MDA-MB-231 30.7 µM | SW-620 45.8 µM | SF-539 31 µM | SK-MEL-2 68.9 µM | KM12 50.1 µM | MDA-MB-435 28.6 µM | PC-3 57.1 µM | DU-145 16 µM | HCT-116 33.7 µM | HT-29 19.1 µM | UACC-62 93.3 µM | CAKI-1 9.48 µM

Cc1cc(NS(=O)(=O)c2ccc(NC(=O)c3ccc4nc5ccccc5c(Nc5ccc(S(=O)(=O)N=C(N)N)cc5)c4c3)cc2)no1
inactive: COLO 205 18.8 µM | MCF7 19.8 µM | OVCAR-4 14.3 µM | Malme-3M 15.6 µM | OVCAR-3 17.7 µM | A549 16.9 µM | U-251 16.2 µM | MDA-MB-231 14.5 µM | SW-620 20.8 µM | SF-539 20.8 µM | SK-MEL-2 16.5 µM | KM12 17.1 µM | MDA-MB-435 19.9 µM | PC-3 16.9 µM | DU-145 17.1 µM | HCT-116 17.3 µM | HT-29 21.4 µM | UACC-62 21.7 µM | CAKI-1 18.9 µM

C(=N\c1nc2cc3sc(/N=C/c4ccccc4)nc3cc2s1)/c1ccccc1
inactive: COLO 205 4.01 µM | MCF7 20.8 µM | OVCAR-4 > 89.5 µM | Malme-3M > 65.3 µM | OVCAR-3 > 85.3 µM | A549 9.66 µM | U-251 > 94.6 µM | MDA-MB-231 > 95.3 µM | SW-620 37.4 µM | SF-539 32.5 µM | SK-MEL-2 > 100 µM | KM12 > 100 µM | MDA-MB-435 > 100 µM | PC-3 98.4 µM | DU-145 > 66.5 µM | HCT-116 44 µM | HT-29 37.1 µM | UACC-62 72.9 µM | CAKI-1 > 79.4 µM

Cc1cc(N(CCC#N)CCC#N)ccc1/C=N/NC(=O)c1ccccc1
inactive: COLO 205 15.7 µM | MCF7 7.82 µM | OVCAR-4 65.8 µM | Malme-3M 33.2 µM | OVCAR-3 15 µM | A549 24.4 µM | U-251 22.5 µM | MDA-MB-231 15 µM | SW-620 8.38 µM | SF-539 7.76 µM | SK-MEL-2 52.8 µM | KM12 3.54 µM | MDA-MB-435 2.42 µM | PC-3 21.8 µM | DU-145 26.1 µM | HCT-116 7.57 µM | HT-29 3.79 µM | UACC-62 10.4 µM | CAKI-1 23.1 µM

COc1ccc2[nH]c3c(c2c1)COc1ccccc1C3=O
inactive: COLO 205 > 100 µM | MCF7 > 100 µM | OVCAR-4 > 100 µM | Malme-3M > 100 µM | OVCAR-3 > 100 µM | A549 > 100 µM | U-251 > 100 µM | MDA-MB-231 > 100 µM | SW-620 > 100 µM | SF-539 89.1 µM | SK-MEL-2 34.8 µM | KM12 > 100 µM | MDA-MB-435 25.4 µM | PC-3 > 100 µM | DU-145 > 100 µM | HCT-116 > 100 µM | HT-29 > 100 µM | UACC-62 > 100 µM | CAKI-1 > 100 µM

CCOC(=O)c1cc(Br)c(-c2cc(C)co2)[nH]1
inactive: COLO 205 > 100 µM | MCF7 > 100 µM | OVCAR-4 > 100 µM | Malme-3M > 100 µM | OVCAR-3 > 100 µM | A549 > 100 µM | U-251 > 100 µM | MDA-MB-231 > 100 µM | SW-620 > 100 µM | SF-539 > 100 µM | SK-MEL-2 > 100 µM | KM12 73.3 µM | MDA-MB-435 32.9 µM | PC-3 > 100 µM | DU-145 > 100 µM | HCT-116 > 100 µM | HT-29 > 100 µM | UACC-62 > 100 µM | CAKI-1 > 100 µM
